From BigSolDB 2.1

O=Cc1ccc([N+](=O)[O-])cc1
solubility (mole fraction) (in 2-butanone, 273.15 K): 0.0367
solubility (mole fraction) (in 2-butanone, 278.15 K): 0.0459
solubility (mole fraction) (in 2-butanone, 283.15 K): 0.0567
solubility (mole fraction) (in 2-butanone, 288.15 K): 0.0689
solubility (mole fraction) (in 2-butanone, 293.15 K): 0.0836
solubility (mole fraction) (in 2-butanone, 298.15 K): 0.102
solubility (mole fraction) (in 2-butanone, 303.15 K): 0.122
solubility (mole fraction) (in 2-butanone, 308.15 K): 0.147
solubility (mole fraction) (in 2-butanone, 313.15 K): 0.174
solubility (mole fraction) (in DMF, 273.15 K): 0.104
solubility (mole fraction) (in DMF, 278.15 K): 0.119
solubility (mole fraction) (in DMF, 283.15 K): 0.135
solubility (mole fraction) (in DMF, 288.15 K): 0.152
solubility (mole fraction) (in DMF, 293.15 K): 0.17
solubility (mole fraction) (in DMF, 298.15 K): 0.192
solubility (mole fraction) (in DMF, 303.15 K): 0.213
solubility (mole fraction) (in DMF, 308.15 K): 0.237
solubility (mole fraction) (in DMF, 313.15 K): 0.262
solubility (mole fraction) (in acetone, 273.15 K): 0.0389
solubility (mole fraction) (in acetone, 278.15 K): 0.051
solubility (mole fraction) (in acetone, 283.15 K): 0.0662
solubility (mole fraction) (in acetone, 288.15 K): 0.0851
solubility (mole fraction) (in acetone, 293.15 K): 0.107
solubility (mole fraction) (in acetone, 298.15 K): 0.134
solubility (mole fraction) (in acetone, 303.15 K): 0.166
solubility (mole fraction) (in acetone, 308.15 K): 0.202
solubility (mole fraction) (in acetone, 313.15 K): 0.244
solubility (mole fraction) (in acetonitrile, 273.15 K): 0.0262
solubility (mole fraction) (in acetonitrile, 278.15 K): 0.0351
solubility (mole fraction) (in acetonitrile, 283.15 K): 0.0471
solubility (mole fraction) (in acetonitrile, 288.15 K): 0.0614
solubility (mole fraction) (in acetonitrile, 293.15 K): 0.0801
solubility (mole fraction) (in acetonitrile, 298.15 K): 0.102
solubility (mole fraction) (in acetonitrile, 303.15 K): 0.13
solubility (mole fraction) (in acetonitrile, 308.15 K): 0.161
solubility (mole fraction) (in acetonitrile, 313.15 K): 0.199
solubility (mole fraction) (in ethanol, 273.15 K): 0.0151
solubility (mole fraction) (in ethanol, 278.15 K): 0.0177
solubility (mole fraction) (in ethanol, 283.15 K): 0.0199
solubility (mole fraction) (in ethanol, 288.15 K): 0.0232
solubility (mole fraction) (in ethanol, 293.15 K): 0.0265
solubility (mole fraction) (in ethanol, 298.15 K): 0.031
solubility (mole fraction) (in ethanol, 303.15 K): 0.0366
solubility (mole fraction) (in ethanol, 308.15 K): 0.0422
solubility (mole fraction) (in ethanol, 313.15 K): 0.0498
solubility (mole fraction) (in ethyl acetate, 273.15 K): 0.0321
solubility (mole fraction) (in ethyl acetate, 278.15 K): 0.0401
solubility (mole fraction) (in ethyl acetate, 283.15 K): 0.0488
solubility (mole fraction) (in ethyl acetate, 288.15 K): 0.0591
solubility (mole fraction) (in ethyl acetate, 293.15 K): 0.072
solubility (mole fraction) (in ethyl acetate, 298.15 K): 0.087
solubility (mole fraction) (in ethyl acetate, 303.15 K): 0.106
solubility (mole fraction) (in ethyl acetate, 308.15 K): 0.126
solubility (mole fraction) (in ethyl acetate, 313.15 K): 0.151
solubility (mole fraction) (in isopropanol, 273.15 K): 0.00326
solubility (mole fraction) (in isopropanol, 278.15 K): 0.00399
solubility (mole fraction) (in isopropanol, 283.15 K): 0.00451
solubility (mole fraction) (in isopropanol, 288.15 K): 0.005
solubility (mole fraction) (in isopropanol, 293.15 K): 0.00589
solubility (mole fraction) (in isopropanol, 298.15 K): 0.00703
solubility (mole fraction) (in isopropanol, 303.15 K): 0.00843
solubility (mole fraction) (in isopropanol, 308.15 K): 0.00929
solubility (mole fraction) (in isopropanol, 313.15 K): 0.0111
solubility (mole fraction) (in methanol, 273.15 K): 0.0263
solubility (mole fraction) (in methanol, 278.15 K): 0.0323
solubility (mole fraction) (in methanol, 283.15 K): 0.0398
solubility (mole fraction) (in methanol, 288.15 K): 0.0488
solubility (mole fraction) (in methanol, 293.15 K): 0.0596
solubility (mole fraction) (in methanol, 298.15 K): 0.0731
solubility (mole fraction) (in methanol, 303.15 K): 0.0884
solubility (mole fraction) (in methanol, 308.15 K): 0.108
solubility (mole fraction) (in methanol, 313.15 K): 0.13
solubility (mole fraction) (in n-butanol, 273.15 K): 0.0118
solubility (mole fraction) (in n-butanol, 278.15 K): 0.0128
solubility (mole fraction) (in n-butanol, 283.15 K): 0.0144
solubility (mole fraction) (in n-butanol, 288.15 K): 0.0161
solubility (mole fraction) (in n-butanol, 293.15 K): 0.018
solubility (mole fraction) (in n-butanol, 298.15 K): 0.02
solubility (mole fraction) (in n-butanol, 303.15 K): 0.0225
solubility (mole fraction) (in n-butanol, 313.15 K): 0.0283
solubility (mole fraction) (in n-propanol, 273.15 K): 0.014
solubility (mole fraction) (in n-propanol, 278.15 K): 0.0152
solubility (mole fraction) (in n-propanol, 283.15 K): 0.0168
solubility (mole fraction) (in n-propanol, 288.15 K): 0.019
solubility (mole fraction) (in n-propanol, 293.15 K): 0.0216
solubility (mole fraction) (in n-propanol, 298.15 K): 0.0243
solubility (mole fraction) (in n-propanol, 303.15 K): 0.0272
solubility (mole fraction) (in n-propanol, 308.15 K): 0.0312
solubility (mole fraction) (in n-propanol, 313.15 K): 0.0362
solubility (mole fraction) (in toluene, 273.15 K): 0.0191
solubility (mole fraction) (in toluene, 278.15 K): 0.0239
solubility (mole fraction) (in toluene, 283.15 K): 0.0297
solubility (mole fraction) (in toluene, 288.15 K): 0.0366
solubility (mole fraction) (in toluene, 293.15 K): 0.0449
solubility (mole fraction) (in toluene, 298.15 K): 0.0547
solubility (mole fraction) (in toluene, 303.15 K): 0.0657
solubility (mole fraction) (in toluene, 308.15 K): 0.0802
solubility (mole fraction) (in toluene, 313.15 K): 0.0969
